Test results: patent publication US9676715B2, “Bis-indolic derivatives, a process for preparing the same and their uses as a drug” (UNIVERSITE JOSEPH FOURIER, priority 2011, dated 2017)
Values after ≈ are worked out from the molar mass of the structure shown.

Key:
E. faecalis ATCC 29212 = assay: MIC, microdilution method (9.1); type: cell-based, Enterococcus faecalis; conditions: Enterococcus faecalis, ATCC29212, 18 h, read-out: MIC
Method: (§1) The microdilution method recommended by the Clinical and Laboratory Standard Institute [M07-A8, Vol. 29, No. 2] was used. The activity of indolic compounds was tested against 29 bacterial strains belonging to 17 different species and 12 different genera (Staphylococcus, Streptococcus, Enterococcus, Listeria, Bacillus, Haemophilus, Escherichia, Klebsiella, Enterobacter, Serratia, Pseudomonas, and Acinetobacter). Bacterial inocula were prepared in Mueller Hinton broth (MH2, bioMérieux, Marcy L'Etoile, France), supplemented with 10% sheep blood for fastidious species (i.e., Streptococcus pneumoniae and Haemophilus influenzae). They were dispensed in 96 well microtiter plates (5×10^5 CFU/ml of final inoculum). Indolic compounds were added to the wells as to obtain two-fold serial concentrations (0.50-128 mg/L of final concentrations). Plates were incubated at 37° C. in ambient air, or at 37° C. in 5% CO2 enriched atmosphere for fastidious species. […] Drug-free cultures served as growth controls. Cultures receiving gentamicin, ciprofloxacin or cefotaxime served as positive controls.

[1] = system: S. agalactiae (group B) ATCC 12400; assay: MIC, microdilution method (9.1); type: cell-based, Streptococcus agalactiae; conditions: Streptococcus agalactiae, ATCC12400, 18 h, read-out: MIC
Method: as §1

S. mitis CIP 103335 = assay: MIC, microdilution method (9.1); type: cell-based, Streptococcus mitis; conditions: Streptococcus mitis, CIP103335, 18 h, read-out: MIC
Method: as §1

[2] = system: S. pyogenes (group A) CIP 104226; assay: MIC, microdilution method (9.1); type: cell-based, Streptococcus pyogenes; conditions: Streptococcus pyogenes, CIP104226, 18 h, read-out: MIC
Method: as §1

[3] = system: Pseudomonas aeruginosa CIP 5933; assay: MIC, microdilution method (9.1); type: cell-based; conditions: CIP5933, 18 h, read-out: MIC
Method: as §1

[4] = system: Escherichia coli ATCC 25922; assay: MIC, microdilution method (9.1); type: cell-based; conditions: ATCC25922, 18 h
Method: as §1

[5] = system: Listeria innocua CIP 80.11; assay: MIC, microdilution method (9.1); type: cell-based; conditions: CIP80, 18 h, read-out: MIC
Method: as §1

[6] = system: Acinetobacter baumanii ATCC 19606; assay: MIC, microdilution method (9.1); type: cell-based; conditions: Acinetobacter baumannii, ATCC19606, 18 h, read-out: MIC
Method: as §1

S. pneumoniae ATCC 49619 = assay: MIC, microdilution method (9.1); type: cell-based; conditions: Streptococcus pneumoniae, ATCC49619, 10% sheep blood, 5% CO2, 18 h
Method: as §1

[7] = system: Bacillus subtilis CIP 5262; assay: MIC, microdilution method (9.1); type: cell-based; conditions: CIP5262, 18 h, read-out: MIC
Method: as §1

[8] = system: Klebsiella pneumoniae API ATCC 35657; assay: MIC, microdilution method (9.1); type: cell-based; conditions: ATCC35657, 18 h, read-out: MIC
Method: as §1

[9] = system: Haemophilus influenzae ATCC 49766; assay: MIC, microdilution method (9.1); type: cell-based; conditions: ATCC49766; Haemophilus influenzae ATCC 49766; 10% sheep blood, 5% CO2; 18 h; read-out: MIC
Method: as §1

[10] = system: Enterobacter cloacae ATCC13047; assay: MIC, microdilution method (9.1); type: cell-based; conditions: 18 h
Method: as §1

[11] = system: Serratia marcescens CIP 103551; assay: MIC, microdilution method (9.1); type: cell-based; conditions: CIP103551, 18 h
Method: as §1

[12] = system: S. aureus ATCC 106414 (VISA); assay: MIC, microdilution method (9.1); type: cell-based, Staphylococcus aureus; conditions: Staphylococcus aureus, read after 18 h, read-out: MIC
Method: as §1

S. aureus SA-1199B = assay: MIC, microdilution method (9.1); type: cell-based, Staphylococcus aureus; conditions: Staphylococcus aureus, SA1199B, 18 h
Method: as §1

S. aureus CIP 103428 = assay: MIC, microdilution method (9.1); type: cell-based, Staphylococcus aureus; conditions: Staphylococcus aureus, CIP103428, read after 18 h, read-out: MIC
Method: as §1

S. aureus ATCC 9144 = assay: MIC, microdilution method (9.1); type: cell-based, Staphylococcus aureus; conditions: Staphylococcus aureus, ATCC9144, read after 18 h, read-out: MIC
Method: as §1

S. aureus CIP 65.6 = assay: MIC, microdilution method (9.1); type: cell-based, Staphylococcus aureus; conditions: Staphylococcus aureus, CIP65, read after 18 h, read-out: MIC
Method: as §1

S. aureus ATCC 6538 = assay: MIC, microdilution method (9.1); type: cell-based, Staphylococcus aureus; conditions: Staphylococcus aureus, ATCC6538, read after 18 h, read-out: MIC
Method: as §1

[13] = system: S. aureus ATCC 33592 (MRSA); assay: MIC, microdilution method (9.1); type: cell-based, Staphylococcus aureus; conditions: Staphylococcus aureus, read after 18 h, read-out: MIC
Method: as §1

S. aureus ATCC 29213 = assay: MIC, microdilution method (9.1); type: cell-based, Staphylococcus aureus; conditions: Staphylococcus aureus, ATCC29213, read after 18 h, read-out: MIC
Method: as §1

S. aureus ATCC 25923 = assay: MIC, microdilution method (9.1); type: cell-based, Staphylococcus aureus; conditions: Staphylococcus aureus, ATCC25923, read after 18 h, read-out: MIC
Method: as §1

[14] = system: S. aureus CIP 65.25 (MRSA); assay: MIC, microdilution method (9.1); type: cell-based, Staphylococcus aureus; conditions: Staphylococcus aureus, read after 18 h, read-out: MIC
Method: as §1

[15] = system: S. epidermidis CIP 103627; assay: MIC, microdilution method (9.1); type: cell-based, Staphylococcus epidermidis; conditions: Staphylococcus epidermidis, CIP103627, read after 18 h, read-out: MIC
Method: as §1

[16] = system: S. epidermidis ATCC 12228; assay: MIC, microdilution method (9.1); type: cell-based, Staphylococcus epidermidis; conditions: Staphylococcus epidermidis, ATCC12228, read after 18 h, read-out: MIC
Method: as §1

S. epidermidis CIP 81.55 = assay: MIC, microdilution method (9.1); type: cell-based, Staphylococcus epidermidis; conditions: Staphylococcus epidermidis, CIP81, read after 18 h, read-out: MIC
Method: as §1

E. faecium CIP 54.32 = assay: MIC, microdilution method (9.1); type: cell-based, Enterococcus faecium; conditions: Enterococcus faecium, CIP54, 18 h, read-out: MIC
Method: as §1

[17] = system: KB (human mouth carcinoma); assay: In vitro cytotoxicity; type: cell-based; conditions: read-out: % of cellular growth inhibition; for inhibition at 10 µM: 10^−5 M; for inhibition at 1 µM: 10^−6 M
Method: (§2) In vitro cytotoxicity was assayed on three cell lines—KB (human mouth carcinoma), MCR5 (human lung fibroblast) and HCT116 (human colon tumor). Results are presented in table IV as % of cellular growth inhibition in presence of 10^−5 M and 10^−6 M of the tested bis-indolic derivatives.

[18] = system: HCT116 (human colon tumor); assay: In vitro cytotoxicity; type: cell-based; conditions: read-out: % of cellular growth inhibition; for inhibition at 10 µM: HCT-116, 10^−5 M; for inhibition at 1 µM: HCT-116, 10^−6 M
Method: as §2

[19] = system: MRC5 (human lung fibroblast); assay: In vitro cytotoxicity; type: cell-based; conditions: read-out: % of cellular growth inhibition; for inhibition at 10 µM: 10^−5 M; for inhibition at 1 µM: 10^−6 M
Method: as §2

S. pneumoniae ATCC 6303 = assay: MIC, microdilution method (9.1); type: cell-based, Streptococcus pneumoniae; conditions: Streptococcus pneumoniae, ATCC6303, 10% sheep blood, 5% CO2, 18 h, read-out: MIC
Method: as §1

[20] = system: HCT116 (human colon tumor); assay: In vitro cytotoxicity; type: cell-based; conditions: HCT-116, HCT116, from 100 μM to 0.005 μM in DMSO, duplicate

CC(C)(C)OC(=O)NCC(NC(=O)c1c[nH]c2ccc(Br)cc12)c1c[nH]c2ccccc12 (centres unmarked) [Compound 3c, tert-Butyl [2-(1H-indol-3-yl)-2-(5-bromo-1H-indol-3-yl-carboxamido)ethyl]carbamate]
MIC (E. faecalis ATCC 29212): > 128 µg/mL
MIC [1]: 64 µg/mL (≈ 129 µM)
MIC (S. mitis CIP 103335): 64 µg/mL (≈ 129 µM)
MIC [2]: 64 µg/mL (≈ 129 µM)
MIC [3]: > 128 µg/mL
MIC [4]: > 128 µg/mL
MIC [5]: > 128 µg/mL
MIC [6]: > 128 µg/mL
MIC (S. pneumoniae ATCC 49619): 32 µg/mL (≈ 64.3 µM)
MIC [7]: 64 µg/mL (≈ 129 µM)
MIC [8]: > 128 µg/mL
MIC [9]: > 128 µg/mL
MIC [10]: > 128 µg/mL
MIC [11]: > 128 µg/mL
MIC [12]: 8 µg/mL (≈ 16.1 µM)
MIC (S. aureus SA-1199B): 8 µg/mL (≈ 16.1 µM)
MIC (S. aureus CIP 103428): 8 µg/mL (≈ 16.1 µM)
MIC (S. aureus ATCC 9144): 8 µg/mL (≈ 16.1 µM)
MIC (S. aureus CIP 65.6): 8 µg/mL (≈ 16.1 µM)
MIC (S. aureus ATCC 6538): 8 µg/mL (≈ 16.1 µM)
MIC [13]: 8 µg/mL (≈ 16.1 µM)
MIC (S. aureus ATCC 29213): 8 µg/mL (≈ 16.1 µM)
MIC (S. aureus ATCC 25923): 8 µg/mL (≈ 16.1 µM)
MIC [14]: 8 µg/mL (≈ 16.1 µM)
MIC [15]: 8 µg/mL (≈ 16.1 µM)
MIC [16]: 8 µg/mL (≈ 16.1 µM)
MIC (S. epidermidis CIP 81.55): 8 µg/mL (≈ 16.1 µM)
MIC (E. faecium CIP 54.32): > 128 µg/mL
inhibition at 10 µM [17]: 46 ± 8%
inhibition at 1 µM [17]: 0%
inhibition at 10 µM [18]: 42 ± 3%
inhibition at 1 µM [18]: 11%
inhibition at 10 µM [19]: 16 ± 9%
inhibition at 1 µM [19]: 0%
MIC (S. pneumoniae ATCC 6303): 32 µg/mL (≈ 64.3 µM)
IC50 ([20]; first value): 8.02 µM
IC50 ([20]; second value): 5.43 µM

CC(C)(C)OC(=O)NCC(NC(=O)c1c[nH]c2cc(Br)ccc12)c1c[nH]c2ccc(Br)cc12 (centres unmarked) [Compound 3g, tert-Butyl(2-(5-bromo-1H-indol-3-yl)-2-(6-bromo-1H-indolyl-3-carboxamido)ethyl)carbamate]
MIC (E. faecalis ATCC 29212): > 128 µg/mL
MIC [1]: 64 µg/mL (≈ 111 µM)
MIC (S. mitis CIP 103335): 64 µg/mL (≈ 111 µM)
MIC [2]: 64 µg/mL (≈ 111 µM)
MIC [3]: > 128 µg/mL
MIC [4]: > 128 µg/mL
MIC [5]: 128 µg/mL (≈ 222 µM)
MIC [6]: > 128 µg/mL
MIC (S. pneumoniae ATCC 49619): 32 µg/mL (≈ 55.5 µM)
MIC [7]: 32 µg/mL (≈ 55.5 µM)
MIC [8]: > 128 µg/mL
MIC [9]: 64 µg/mL (≈ 111 µM)
MIC [10]: > 128 µg/mL
MIC [11]: > 128 µg/mL
MIC [12]: 1 µg/mL (≈ 1.74 µM)
MIC (S. aureus SA-1199B): 2 µg/mL (≈ 3.47 µM)
MIC (S. aureus CIP 103428): 1 µg/mL (≈ 1.74 µM)
MIC (S. aureus ATCC 9144): 2 µg/mL (≈ 3.47 µM)
MIC (S. aureus CIP 65.6): 2 µg/mL (≈ 3.47 µM)
MIC (S. aureus ATCC 6538): 2 µg/mL (≈ 3.47 µM)
MIC [13]: 2 µg/mL (≈ 3.47 µM)
MIC (S. aureus ATCC 29213): 2 µg/mL (≈ 3.47 µM)
MIC (S. aureus ATCC 25923): 2 µg/mL (≈ 3.47 µM)
MIC [14]: 1 µg/mL (≈ 1.74 µM)
MIC [15]: 2 µg/mL (≈ 3.47 µM)
MIC [16]: 1 µg/mL (≈ 1.74 µM)
MIC (S. epidermidis CIP 81.55): 2 µg/mL (≈ 3.47 µM)
MIC (E. faecium CIP 54.32): > 128 µg/mL
inhibition at 10 µM [17]: 98 ± 1%
inhibition at 1 µM [17]: 0%
inhibition at 10 µM [18]: 86 ± 2%
inhibition at 1 µM [18]: 9%
inhibition at 10 µM [19]: 83 ± 10%
inhibition at 1 µM [19]: 0%
MIC (S. pneumoniae ATCC 6303): 32 µg/mL (≈ 55.5 µM)
IC50 ([20]; first value): 5.48 µM
IC50 ([20]; second value): 6.06 µM
